These results are taken from PMC10498496, “Design and Synthesis of Poly(2,2′-Bipyridyl) Ligands for Induction of Cell Death in Cancer Cells: Control of Anticancer Activity by Complexation/Decomplexation with Biorelevant Metal Cations” (Inorganic Chemistry, 2023).

The test system of assay [1] is Jurkat cells. As to the kind of experiment: Annexin V-FITC/PI staining by flow cytometry. Format: cell-based, human. To be noted: 24 h. The procedure: The cell death in Jurkat cells induced by 1 and cisplatin (after the treatment for 24 h) was characterized by the flow cytometry of Jurkat cells after co-staining with Annexin V-FITC and PI to characterize the early and late apoptosis or necrosis. Each of the four areas in Figure 6 indicates Annexin V-FITC negative and PI signal positive (= necrotic cells) (top left square), Annexin V-FITC positive and PI positive (= late apoptosis) (top right square), Annexin V-FITC negative and PI negative (= alive cells) (bottom left square); and Annexin V-FITC positive and PI signal negative (= early apoptosis cells) (bottom right square), respectively. As summarized in Figure 7, the percentage of late apoptotic cells of the cells that had been treated with cisplatin increased from 15 to 75% at [cisplatin] = 12.5 to 50 μM and the percentage of late apoptotic cells of cells treated with 1 increased from 14 to 65% at = […] to 5 μM.
Figure 6 Jurkat cells were treated with no ligand (a) and with 1 (0.5–5 μM) (b,c) and cisplatin (12.5–50 μM) (d,e) and for 24 h, stained with Annexin V-FITC/PI, and observed by flow cytometry. The four areas in each graph show necrotic cells in the top left square (Annexin V-FITC^-/PI^+), late apoptotic cells in the top right square (Annexin V-FITC^+/PI^+), alive cells in the bottom left square (Annexin V-FITC^–/PI^–), and apoptotic cells in the bottom right square (Annexin V-FITC^+/PI^–). TEXT PRINTED IN THE PICTURE: (b) 1: 1.14 (0.5 μM); 14.7 (0.5 μM); 83.5 (0.5 μM); 0.7 (0.5 μM) | (c) 1: 0.82 (5 μM); 59 (5 μM); 38.5 (5 μM); 1.6 (5 μM) | (d) cisplatin: 4.19 (12.5 μM); 24.3 (12.5 μM); 71.3 (12.5 μM); 0.23 (12.5 μM) | (e) cisplatin: 0.94 (50 μM); 66.2 (50 μM); 32.6 (50 μM); 0.24 (50 μM) DOUBTS OF THE COPYIST ABOUT THIS PICTURE: The quadrant numbers are printed without a measure or unit. In each panel they are given in the order top left, top right, bottom left, bottom right. / Panel (a) Control (1.26, 3.82, 94.9, 0.072) is left out because it is not a substance.
Jurkat cells (1.0 × 10^5 cells/tube) were incubated in 10% FBS RPMI 1640 medium containing solution of 1 ([…]) and cisplatin (0–50 μM) for 24 h. The cells were then centrifuged at 3000 rpm for 5 min at 4 °C, then the supernatant was discarded, and the pellet was resuspended in 200 μL of PBS. The cells were then centrifuged at 3000 rpm for 5 min at 4 °C, then the supernatant was discarded, and the pellet was resuspended in 195 μL of 1 × binding buffer. A 195 μL aliquot of the sample solution was incubated with 5 μL of FITC-conjugated annexin V (Invitrogen) for 15 min at room temperature in the dark. […] 200 μL of the sample solution transferred to culture tube were analyzed by flow cytometry (Becton Dickinson) using Cell Quest Research Software (Becton Dickinson).
(In flow cytometry, cells or beads pass a laser one at a time.)

The subject of assay [2] is IMR-90 cells. As to the kind of experiment: MTT assay, cytotoxicity against IMR-90 cells (model of normal cells). Format: cell-based, human. The settings on record: MTT, 37 °C, treated for 24 h, read-out: EC50 against IMR-90. The procedure: Second, we conducted the quantitative evaluation of the cytotoxicity of 1, 2, and 3 against various cancer cell lines by an MTT (3-(4,5-dimethylthiazol-2-yl)-2,5-diphenyltetrazolium bromide) assay. Jurkat, MOLT-4 (these two cell lines are human T-lymphocyte leukemia cells), and U937 (human lymphoma) cells (1.5 × 10^4 cells/well) were incubated in RPMI 1640 medium containing 10% FBS (fetal bovine serum) containing 1, 2, and 3 (0–25 μM) at 37 °C for 24 h, and then treated with the MTT reagent. A549 (human alveolar adenocarcinoma) and IMR-90 (normal human fetal lung fibroblast as model of normal cells) cells (1.5 × 10^4 cells/well) were incubated in DMEM (low glucose) with 10% FBS containing 1, 2, and 3 (0–25 μM), HeLa S3 (human epithelial carcinoma cells) cells (1.5 × 10^4 cells/well) were incubated in MEM with 10% FBS containing these ligands (0–25 μM) for 24 h at 37 °C and then treated with the MTT reagent.
IMR-90 cells in DMEM medium with 10% FBS (1.5 × 10^5 cells/mL) were seeded in to 96 well plates and incubated for 24 h at 37 °C, MTT assays with poly(bpy) ligands and their metal complexes (0–100 μM), cisplatin (0–100 μM), and actinomycin D (0–10 μM) were performed following the same procedure described above. These experiments were carried out at least three times. • (b) MTT assay in the presence of a caspase inhibitor. Jurkat cells were pre-treated with Z-VAD-fmk (15 μM) for 3 h, a general caspases inhibitor, followed by the treatment with 1 (1 μM), BABTA-AM (12.5 μM) and cisplatin (50 μM), respectively, for 24 h, and then MTT assay was carried out as described above. • (c) For evaluation of the effect of metal ions on the cytotoxicity of 1, 2, BAPTA, and BAPTA-AM, these ligands were incubated with metal ions such as Cu(NO3)2, Zn(NO3)2, FeSO4, Co(NO3)2, and NiSO4 for 1 h, respectively, and added to Jurkat cells. The whole mixtures were incubated for 12, 24, and 48 h at [ligand] = 0.78–25 μM and at [M^2+] = 1.71–37.5 μM ([ligand]/[M^2+] = 1:1.5). The MTT assays were conducted as described above.
On the technique in general: Tetrazolium dyes change colour on reduction, which living cells bring about.

Where two headings read alike, the source gives them in different places. A value given as a limit tells only on which side of the number the result lay.

Usually EC50 stands for the midpoint of the concentration-response curve. Take `N.N.[Cl][Pt][Cl]` [cisplatin, reference compound]: the “percentage of late apoptotic cells” value in assay [1] (12.5 μM (Figure 7, n = 3)) is recorded as 15%; in assay [1] (50 μM (Figure 7, n = 3)), 75%. In assay [2], the concentration giving a half-maximal response (EC50) is above 100 µM.

As for `c1ccc(-c2ccc(OCc3cc(COc4ccc(-c5ccccn5)nc4)cc(COc4ccc(-c5ccccn5)nc4)c3)cn2)nc1` [compound 1, 1,3,5-Tris(([2,2′-Bipyridin]-5-yloxy)methyl)benzene], the “percentage of late apoptotic cells” value is 14% in assay [1] (0.25 μM (Figure 7, n = 3)) and 65% in assay [1] (5 μM (Figure 7, n = 3)). Further, the EC50 in assay [2] (Homo sapiens, IMR-90) was above 100 µM.
